Measurements reported in the supplement of paper PMC10878532, “Sperm Toolbox—A selection of small molecules to study human spermatozoa” (PLOS ONE, 2024).

Columns and labels:
[1] = system: human spermatozoa; test: hyperactivated motile sperm, percent change vs DMSO (capacitating); higher = more of the measured sperm population than DMSO, for viability, fewer PI-positive (dead) cells than DMSO; settings: incubation time: 30min incubation
[2] = system: human spermatozoa; test: total motile sperm, percent change vs DMSO (non-capacitating); higher = more of the measured sperm population than DMSO, for viability, fewer PI-positive (dead) cells than DMSO
[3] = system: human spermatozoa; test: progressively motile sperm, percent change vs DMSO (non-capacitating); higher = more of the measured sperm population than DMSO, for viability, fewer PI-positive (dead) cells than DMSO; extreme values may be limits of the assay
[4] = system: HeLa; test: HeLa toxicity: nuclei-count effect normalised to DMSO (DMSO = 0); higher = more features changed / larger toxic effect; settings: incubation time: 24h incubation
[5] = system: human spermatozoa; test: viability fold change, 1 - (PI-positive fraction / DMSO median); higher = more of the measured sperm population than DMSO, for viability, fewer PI-positive (dead) cells than DMSO; settings: incubation time: 3h, non-capacitating
[6] = system: HeLa; test: Cell Painting percent induction (share of features beyond 2 z-scores vs DMSO); higher = more features changed / larger toxic effect; extreme values may be limits of the assay; settings: incubation time: 24h incubation
[7] = system: human spermatozoa; test: acrosome-reacted (PNA+) sperm after agonist cocktail, percent change vs DMSO (capacitating); higher = more of the measured sperm population than DMSO, for viability, fewer PI-positive (dead) cells than DMSO; settings: incubation time: 3h, capacitating + agonist cocktail 1h
[8] = system: human spermatozoa; test: change in acrosome-reacted (PNA+) sperm vs DMSO, no agonist (capacitating); higher = more of the measured sperm population than DMSO, for viability, fewer PI-positive (dead) cells than DMSO; settings: incubation time: 3h
[9] = system: human spermatozoa; test: progressively motile sperm, percent change vs DMSO (capacitating); higher = more of the measured sperm population than DMSO, for viability, fewer PI-positive (dead) cells than DMSO; settings: incubation time: 30min incubation
[10] = system: HepG2; test: HepG2 toxicity (resazurin), effect normalised to DMSO (DMSO = 0); higher = more features changed / larger toxic effect; settings: incubation time: 70h incubation
[11] = incubation time: 10min incubation, 9.99 µM
[12] = incubation time: 10min incubation, 29.9 µM
[13] = incubation time: 3h incubation, 9.99 µM
[14] = incubation time: 3h incubation, 29.9 µM
[15] = incubation time: 6h incubation, 9.99 µM
[16] = incubation time: 6h incubation, 29.9 µM
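Wherever progressively motile sperm, percent change vs DMSO (non-capacitating) is given: pooled live human sperm from at least 3 donors, tracked by automated microscopy in 0.5 s time-lapse movies, compounds at 10 and 30 µM, versus median of 16 DMSO wells per plate.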
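Wherever total motile sperm, percent change vs DMSO (non-capacitating) is given: sperm pooled from at least 3 donors, tracked in 0.5 s time-lapse movies by automated microscopy after 10 min, 3 h or 6 h with compound at 10 or 30 µM.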

Structure (SMILES) | hyperactivated motile sperm ([1]; 9.99 µM) | hyperactivated motile sperm ([1]; 29.9 µM) | total motile sperm [2, 11] | total motile sperm [2, 12] | total motile sperm [2, 13] | total motile sperm [2, 14] | total motile sperm [2, 15] | total motile sperm [2, 16] | progressively motile sperm [3, 11] | progressively motile sperm [3, 12] | progressively motile sperm [3, 13] | progressively motile sperm [3, 14] | progressively motile sperm [3, 15] | progressively motile sperm [3, 16] | HeLa toxicity: nuclei-count effect normalised ([4]; 9.99 µM) | HeLa toxicity: nuclei-count effect normalised ([4]; 29.9 µM) | viability fold change ([5]; 9.99 µM) | viability fold change ([5]; 29.9 µM) | Cell Painting percent induction ([6]; 9.99 µM) | Cell Painting percent induction ([6]; 29.9 µM) | acrosome-reacted ([7]; 9.99 µM) | acrosome-reacted ([7]; 29.9 µM) | change in acrosome-reacted ([8]; 9.99 µM) | change in acrosome-reacted ([8]; 29.9 µM) | progressively motile sperm ([9]; 9.99 µM) | progressively motile sperm ([9]; 29.9 µM) | HepG2 toxicity ([10]; 10 µM) | HepG2 toxicity ([10]; 30 µM)
Cc1ccc(S(=O)(=O)c2c(N)n(CC(O)c3ccc([N+](=O)[O-])cc3)c3nc4ccccc4nc23)cc1 (stereo unspecified) | 2.52% | -33% | 1.39% | 2.71% | 1.22% | -9.75% | -1.06% | -11.3% | 8.38% | 7.14% | 40.6% | 20.1% | 45.4% | 24.6% | 9.49% | 44.6% | -0.179 | 0.2 | 0.072% | 0.648% | 22.3% | 49.7% | 0.985% | 1.51% | 7.62% | 16.1% | – | –
COc1ccc(CCCN2CCC(COC(c3ccccc3)c3ccccc3)CC2)cc1 | -18.3% | -70.2% | -0.81% | 2.28% | 0.77% | -5.61% | -0.213% | -15.3% | 1.8% | -4.83% | 20% | -8.53% | 32.7% | -19.4% | 11.7% | 80.9% | -1.38 | -1.52 | 0% | 10.8% | 4.02% | 18.6% | 1.43% | 2.85% | -2.66% | -7.92% | 1.6% | 103%
Cc1[nH]c(/C=C2\C(=O)Nc3ccc(S(=O)(=O)Cc4c(Cl)cccc4Cl)cc32)c(C)c1C(=O)N1CCC[C@@H]1CN1CCCC1 | -20.8% | -80.4% | -0.103% | -18.4% | -9.66% | -49.8% | -12.2% | -57.4% | 6.38% | -35.3% | 20.9% | -68.2% | 18.6% | -82% | 94.7% | 92.9% | -3.34 | -3.76 | 20.4% | 17.5% | -1.2% | 30.3% | 3.55% | 20.4% | -3.18% | -76.5% | 102% | 103%
COC(=O)c1c(C)[nH]c(C)c1C(=O)c1ccccc1Cc1ccccc1 | 21.1% | -0.915% | 0.541% | -1.51% | -6.62% | -4.77% | -5.32% | -5.3% | -1.68% | -2.66% | 4.27% | -4.02% | 12.6% | 4.09% | 4.01% | 0.735% | 0.0191 | -0.102 | 0% | 0.18% | 25.4% | 48.8% | 0.874% | 0.596% | 13.4% | 14.7% | -4.33% | 10.6%
CC(C)(C)c1ccc(S(=O)(=O)Nc2cnc3[nH]c(C(=O)N[C@H]4CCC[C@H]4O)c(-c4ccccc4)c3c2)cc1 | -89.9% | -90.6% | -3.11% | 0.824% | 2.99% | -0.471% | -0.468% | -0.141% | -18.5% | -14% | -13% | -11.7% | -9.71% | -14.5% | – | – | 0.0771 | 0.0653 | – | – | -55.5% | -40.6% | 0.406% | 0.723% | -49.7% | -49.4% | 3.81% | 16.8%
CNc1ccc2oc(C[C@H]3O[C@@]4(CC[C@H]3C)O[C@H]([C@H](C)C(=O)c3ccc[nH]3)[C@H](C)C[C@H]4C)nc2c1C(=O)O | -68.5% | -83.7% | -57.2% | -78.3% | -89.9% | -93.5% | -92% | -94.3% | -82.5% | -97.5% | -99.9% | -100% | -99.9% | -100% | 79.6% | 94.7% | -2.53 | -2.38 | 1.33% | 14.5% | 106% | 106% | 45.3% | 46.5% | -89.8% | -99.9% | 99.9% | 102%
COc1cc2ncn(-c3cc(OCc4ccccc4C(F)(F)F)c(C(N)=O)s3)c2cc1OC | 157% | 59.7% | -14.5% | -45.8% | -27.6% | -55.7% | -30.1% | -57.1% | 16.5% | -45.9% | 26.5% | -69.6% | 43.2% | -68.4% | 78.2% | 78.9% | -1.45 | -1.24 | 2.81% | 2.27% | 123% | 120% | 0.45% | -0.12% | -3.24% | -34.8% | 17.5% | 9.88%
O=C(N1CCCCC1)N1CCCCC1Cc1ccccc1 (stereo unspecified) | 6.11% | 3.93% | -0.235% | 4.54% | -3.63% | 0.0877% | -4.64% | -4.36% | -0.571% | 5.81% | 19.1% | 18.1% | 17.3% | 16.4% | -3.81% | -5.74% | 0.104 | -0.0769 | 0% | 0% | 6.47% | 7.82% | – | – | 9.35% | 20.1% | 5.44% | -4.3%
